Experimental data taken from ChEMBL document CHEMBL5137095, “N-Benzyl Benzamide Derivatives as Selective Sub-Nanomolar Butyrylcholinesterase Inhibitors for Possible Treatment in Advanced Alzheimer's Disease” (J Med Chem, 2022).

Tests used:
BV-2 [1] = experiment: Cytotoxicity against mouse BV-2 cells assessed as reduction in cell viability at 20 uM by MTT assay; assay type: toxicity, cell-based; conditions: bv-2, 20 µM
BV-2 [2] = experiment: Cytotoxicity against mouse BV-2 cells assessed as reduction in cell viability at 10 uM by MTT assay; assay type: toxicity, cell-based; conditions: bv-2, 10 µM
Cholinesterase [3] = target: T1, Cholinesterase (Homo sapiens, UniProt P06276); experiment: Inhibition of human BChE using acetylthiocholine iodide or butyrylthiocholine iodide as substrate preincubated for 5 mins followed by substrate addition by Ellman's method
Cholinesterase [4] = target: T1, Cholinesterase; experiment: Inhibition of human BChE assessed as inhibition constant
Cholinesterase [5] = target: T1, Cholinesterase; experiment: Binding affinity to human BChE assessed as dissociation constant by surface plasmon resonance assay
[6] = n-octanol-water partition coefficient, log P of the compound by HPLC analysis; assay type: physicochemical
[7] = Permeability of compound incubated for 18 hrs by PAMPA-BBB assay; assay type: ADME; conditions: read-out: permeability
HT-22 [8] = experiment: Cytotoxicity against mouse HT-22 cells assessed as reduction in cell viability at 10 uM by MTT assay; assay type: toxicity, cell-based; conditions: ht-22, 10 µM
PC-12 [9] = experiment: Cytotoxicity against rat PC-12 cells assessed as reduction in cell viability at 10 uM by MTT assay; assay type: toxicity, cell-based; conditions: pc-12, 10 µM
SH-SY5Y [10] = experiment: Cytotoxicity against human SH-SY5Y cells assessed as reduction in cell viability at 10 uM by MTT assay; assay type: toxicity, cell-based
[11] = Cytotoxicity against mouse BV-2 cells assessed as cell survival rate at 10 uM by MTT assay; assay type: toxicity, cell-based; conditions: read-out: Activity
[12] = Cytotoxicity against mouse HT-22 cells assessed as cell survival rate at 10 uM by MTT assay; assay type: toxicity, cell-based; conditions: read-out: Activity
[13] = Cytotoxicity against rat PC-12 cells assessed as cell survival rate at 10 uM by MTT assay; assay type: toxicity, cell-based; conditions: read-out: Activity
[14] = Cytotoxicity against human SH-SY5Y cells assessed as cell survival rate at 10 uM by MTT assay; assay type: toxicity, cell-based; conditions: read-out: Activity
HT-22 [15] = experiment: Cytotoxicity against mouse HT-22 cells assessed as reduction in cell viability at 20 uM by MTT assay; assay type: toxicity, cell-based; conditions: ht-22, 20 µM
PC-12 [16] = experiment: Cytotoxicity against rat PC-12 cells assessed as reduction in cell viability at 20 uM by MTT assay; assay type: toxicity, cell-based; conditions: pc-12, 20 µM
SH-SY5Y [17] = experiment: Cytotoxicity against human SH-SY5Y cells assessed as reduction in cell viability at 20 uM by MTT assay; assay type: toxicity, cell-based
PC-12 [18] = experiment: Neuroprotective activity against H2O2-induced cell damage in rat PC-12 cells assessed as survival rate at 5 to 10 uM pretreated for 2 hrs followed by H2O2 addition and measured after 24 hrs by MTT assay; assay type: functional; conditions: dose 5-10 µM, time 26 hrs
SH-SY5Y [19] = experiment: Neuroprotective activity against amyloid beta (1 to 42)-induced cell damage in human SH-SY5Y cells assessed as cell survival rate at 25 uM pretreated for 2 hrs followed by amyloid beta (1 to 42) addition and measured after 24 hrs by MTT assay; assay type: functional; conditions: time 26 hrs
SH-SY5Y [20] = experiment: Neuroprotective activity against amyloid beta (1 to 42)-induced cell damage in human SH-SY5Y cells assessed as cell survival at 2 uM pretreated for 2 hrs followed by amyloid beta (1 to 42) addition and measured after 24 hrs by MTT assay; assay type: functional; conditions: time 26 hrs, read-out: Activity
[21] = Acute toxicity in ICR mouse assessed as death at 1000 mg/kg, po measured after 4 hrs; assay type: organism-based; conditions: in vivo
[22] = Acute toxicity in ICR mouse assessed as effect on consumption of water and food at 1000 mg/kg, po measured after 14 days; assay type: organism-based; conditions: in vivo, 336 h, time 14 day
[23] = Acute toxicity in ICR mouse assessed as increase in body weight at 1000 mg/kg, po measured after 14 days; assay type: organism-based; conditions: in vivo, 336 h, time 14 day
[24] = Elimination half life in Sprague-Dawley rat at 10 mg/kg, IG measured after 48 hrs by LC-MS analysis; assay type: ADME, organism-based; conditions: in vivo, po, read-out: beta t1/2 (converted)
[25] = Elimination half life in Sprague-Dawley rat at 10 mg/kg, iv measured after 48 hrs by LC-MS analysis; assay type: ADME, organism-based; conditions: in vivo, read-out: beta t1/2 (converted)
[26] = Tmax in Sprague-Dawley rat at 10 mg/kg, IG measured after 48 hrs by LC-MS analysis; assay type: ADME, organism-based; conditions: in vivo, po
[27] = Tmax in Sprague-Dawley rat at 10 mg/kg, iv measured after 48 hrs by LC-MS analysis; assay type: ADME, organism-based; conditions: in vivo
[28] = Cmax in Sprague-Dawley rat at 10 mg/kg, IG measured after 48 hrs by LC-MS analysis; assay type: ADME, organism-based; parameters: time 48 hrs, dose 10 mg/kg, route ig; conditions: in vivo, po
[29] = Cmax in Sprague-Dawley rat at 10 mg/kg, iv measured after 48 hrs by LC-MS analysis; assay type: ADME, organism-based; parameters: dose 10 mg/kg, time 48 hrs, route iv; conditions: in vivo
[30] = AUC (0 to infinitive) in Sprague-Dawley rat at 10 mg/kg, IG measured after 48 hrs by LC-MS analysis; assay type: ADME, organism-based; parameters: dose 10 mg/kg, time 48 hrs, route ig; conditions: in vivo, po
[31] = AUC (0 to infinitive) in Sprague-Dawley rat at 10 mg/kg, iv measured after 48 hrs by LC-MS analysis; assay type: ADME, organism-based; parameters: time 48 hrs, dose 10 mg/kg, route iv; conditions: in vivo
[32] = Oral bioavailability in Sprague-Dawley rat at 10 mg/kg measured after 48 hrs by LC-MS analysis; assay type: ADME, organism-based; conditions: in vivo
[33] = Microsomal stability in human liver microsomes assessed as half life measured after 120 mins; assay type: ADME, Microsome
[34] = Plasma concentration in ICR mouse at 10 mg/kg, po measured at 0.25 hrs by LC-MS analysis; assay type: ADME, organism-based
[35] = Plasma concentration in ICR mouse at 10 mg/kg, IG measured at 0.5 hrs by LC-MS analysis; assay type: ADME, organism-based; conditions: po
[36] = Plasma concentration in ICR mouse at 10 mg/kg, po measured at 1 hr by LC-MS analysis; assay type: ADME, organism-based
[37] = Plasma concentration in ICR mouse at 10 mg/kg, IG measured at 2 hrs by LC-MS analysis; assay type: ADME, organism-based; conditions: po
[38] = Plasma concentration in ICR mouse at 10 mg/kg, IG measured at 4 hrs by LC-MS analysis; assay type: ADME, organism-based; conditions: po
[39] = Plasma concentration in ICR mouse at 10 mg/kg, IG measured at 6 hrs by LC-MS analysis; assay type: ADME, organism-based; conditions: po
[40] = Brain concentration in ICR mouse at 10 mg/kg, IG measured at 0.25 hrs by LC-MS analysis; assay type: ADME, organism-based; conditions: po, read-out: Ct
[41] = Brain concentration in ICR mouse at 10 mg/kg, IG measured at 0.5 hrs by LC-MS analysis; assay type: ADME, organism-based; conditions: po, read-out: Ct
[42] = Brain concentration in ICR mouse at 10 mg/kg, IG measured at 1 hr by LC-MS analysis; assay type: ADME, organism-based; conditions: po, read-out: Ct
[43] = Brain concentration in ICR mouse at 10 mg/kg, IG measured at 2 hrs by LC-MS analysis; assay type: ADME, organism-based; conditions: po, read-out: Ct
[44] = Brain concentration in ICR mouse at 10 mg/kg, IG measured at 4 hrs by LC-MS analysis; assay type: ADME, organism-based; conditions: po, read-out: Ct
[45] = Brain concentration in ICR mouse at 10 mg/kg, IG measured at 6 hrs by LC-MS analysis; assay type: ADME, organism-based; conditions: po, read-out: Ct

T1 sequence (P06276 whole entry): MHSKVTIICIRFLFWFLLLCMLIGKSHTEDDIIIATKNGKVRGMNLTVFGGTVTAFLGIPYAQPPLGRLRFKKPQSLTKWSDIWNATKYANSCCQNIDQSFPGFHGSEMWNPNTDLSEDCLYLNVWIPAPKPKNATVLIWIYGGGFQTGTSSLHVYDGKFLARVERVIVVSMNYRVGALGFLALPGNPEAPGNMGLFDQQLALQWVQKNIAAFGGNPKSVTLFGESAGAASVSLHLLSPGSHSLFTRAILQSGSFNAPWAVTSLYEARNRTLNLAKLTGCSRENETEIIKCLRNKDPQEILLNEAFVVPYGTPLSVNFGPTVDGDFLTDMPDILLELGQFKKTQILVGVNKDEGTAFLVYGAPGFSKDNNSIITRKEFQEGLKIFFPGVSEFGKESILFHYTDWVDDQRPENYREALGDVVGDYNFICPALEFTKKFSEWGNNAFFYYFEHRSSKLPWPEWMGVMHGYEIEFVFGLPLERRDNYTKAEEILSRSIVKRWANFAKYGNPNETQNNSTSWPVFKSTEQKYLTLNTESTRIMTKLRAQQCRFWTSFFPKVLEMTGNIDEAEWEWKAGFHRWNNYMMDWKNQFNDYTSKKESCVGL

For `CCN(CC)Cc1ccccc1CNC(=O)c1cccc(NC(=O)c2ccc(F)cc2)c1`, which Activity (BV-2 [1]) is on record?
Its Activity is “Non-Toxic”.

What about the Activity (BV-2 [2]) of the same molecule?
Its Activity is “Non-Toxic”.

And the IC50 (Cholinesterase [3])?
The IC50 was 0.08 nM.

And the Ki (Cholinesterase [4])?
The Ki was 0.61 nM.

What about the Kd (Cholinesterase [5]) of the same molecule?
Its Kd is 0.37 nM.

And the logP [6]?
Its logP is 1.7.

What about the Papp at 18 h [7] of the same molecule?
Its Papp at 18 h is 10.2 ×10⁻⁶ cm/s.

What about the Activity (HT-22 [8]) of the same molecule?
The Activity was “Non-Toxic”.

What about the Activity (PC-12 [9]) of the same molecule?
The Activity was “Non-Toxic”.

And the Activity (SH-SY5Y [10])?
The Activity was “Non-Toxic”.

And the viability at 10 µM [11]?
The viability at 10 µM was over 70%.

And the viability at 10 µM [12]?
The viability at 10 µM was over 70%.

What about the viability at 10 µM [13] of the same molecule?
The viability at 10 µM was over 70%.

What about the viability at 10 µM [14] of the same molecule?
The viability at 10 µM was over 70%.

And the Activity (HT-22 [15])?
Its Activity is “Non-Toxic”.

What about the Activity (PC-12 [16]) of the same molecule?
The Activity was “Non-Toxic”.

And the Activity (SH-SY5Y [17])?
The Activity was “Non-Toxic”.

And the Activity (PC-12 [18])?
The Activity was 61.7%.

What about the Activity (SH-SY5Y [19]) of the same molecule?
Its Activity is 64.12%.

And the viability at 2 µM (SH-SY5Y [20])?
Its viability at 2 µM is 68%.

What about the Activity [21] of the same molecule?
Its Activity is “Non-Toxic”.

What about the Activity [22] of the same molecule?
Its Activity is “Non-Toxic”.

What about the Activity [23] of the same molecule?
Its Activity is “Non-Toxic”.

What about the half-life [24] of the same molecule?
Its half-life is 28.1 h.

And the half-life [25]?
Its half-life is 17.2 h.

And the Tmax [26]?
The Tmax was 0.63 h.

And the Tmax [27]?
The Tmax was 6 min.

And the Cmax [28]?
The Cmax was 36.4 ng/mL.

What about the Cmax [29] of the same molecule?
Its Cmax is 1640 ng/mL.

What about the AUC(0-inf) [30] of the same molecule?
The AUC(0-inf) was 497 ng·h/mL.

What about the AUC(0-inf) [31] of the same molecule?
Its AUC(0-inf) is 2170 ng·h/mL.

And the bioavailability [32]?
Its bioavailability is 21.7%.

What about the half-life [33] of the same molecule?
The half-life was 1.55 h.

And the concentration at 0.25 h [34]?
The concentration at 0.25 h was 25.7 ng/mL.

And the concentration at 0.5 h [35]?
The concentration at 0.5 h was 30.2 ng/mL.

What about the concentration at 1 h [36] of the same molecule?
The concentration at 1 h was 20.9 ng/mL.

And the concentration at 2 h [37]?
Its concentration at 2 h is 18.4 ng/mL.

What about the concentration at 4 h [38] of the same molecule?
Its concentration at 4 h is 17.4 ng/mL.

What about the concentration at 6 h [39] of the same molecule?
The concentration at 6 h was 2.95 ng/mL.

And the concentration at 0.25 h [40]?
Its concentration at 0.25 h is 25.4 ng/g.

What about the concentration at 0.5 h [41] of the same molecule?
The concentration at 0.5 h was 26.8 ng/g.

What about the concentration at 1 h [42] of the same molecule?
Its concentration at 1 h is 37.5 ng/g.

What about the concentration at 2 h [43] of the same molecule?
Its concentration at 2 h is 17.7 ng/g.

And the concentration at 4 h [44]?
The concentration at 4 h was 16.4 ng/g.

And the concentration at 6 h [45]?
The concentration at 6 h was 15.3 ng/g.
